Measured values as given in paper PMC11249646, “Small-Molecule Disruptors of the Interaction between Calcium- and Integrin-Binding Protein 1 and Integrin αIIbβ3 as Novel Antiplatelet Agents” (ACS Pharmacology & Translational Science, 2024).

molecular target: T1, GST-CIB1 : F-scrambled peptide (Homo sapiens, UniProt Q99828); test: FP scrambled-peptide counter screen, 1536-well format; format: binding; details: Table S3, counterscreen, qHTS curve class; a negative sign marks inhibitory curves
T1 construct: made in house; host or cells: BL-21 plus RIL cells (E. coli)
T1 sequence (Q99828 1-191): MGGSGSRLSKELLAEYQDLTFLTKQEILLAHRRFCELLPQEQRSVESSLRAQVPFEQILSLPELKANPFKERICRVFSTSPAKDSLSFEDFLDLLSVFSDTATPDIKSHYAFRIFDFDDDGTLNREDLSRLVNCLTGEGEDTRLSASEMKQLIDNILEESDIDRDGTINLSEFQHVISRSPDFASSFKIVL

Curve Class (counterscreen) | Structure (SMILES)
4 | CC[C@@H](c1ccc(F)c(F)c1)n1c(C(=O)OC)c(-c2ccno2)[nH]c1=S [NCGC00387465-01]
-2.2 | O=C(N/N=C1\C(=O)N(CCc2ccccc2)c2ccccc21)c1cccnc1 [NCGC00420788-01]

Structure (SMILES) | Curve Class (counterscreen)
Cc1ccc2c(c1)/C(=C\C(=O)c1cccs1)C(=O)N2.O=C(O)C(F)(F)F [NCGC00479180-01] | -2.4

same assay, conditions: Table S3, counterscreen; negative = inhibition

Efficacy (%) (counterscreen) | Structure (SMILES)
0% | CC[C@@H](c1ccc(F)c(F)c1)n1c(C(=O)OC)c(-c2ccno2)[nH]c1=S [NCGC00387465-01]
-65% | O=C(N/N=C1\C(=O)N(CCc2ccccc2)c2ccccc21)c1cccnc1 [NCGC00420788-01]

Structure (SMILES) | Efficacy (%) (counterscreen)
Cc1ccc2c(c1)/C(=C\C(=O)c1cccs1)C(=O)N2.O=C(O)C(F)(F)F [NCGC00479180-01] | -64%

same assay, conditions: Table S3, counterscreen; read-out: IC50 [μM] (counterscreen)

Structure (SMILES) | IC50
O=C(N/N=C1\C(=O)N(CCc2ccccc2)c2ccccc21)c1cccnc1 [NCGC00420788-01] | 44.7 µM
Cc1ccc2c(c1)/C(=C\C(=O)c1cccs1)C(=O)N2.O=C(O)C(F)(F)F [NCGC00479180-01] | 11.2 µM

same assay, conditions: counterscreen

Efficacy (%) (counterscreen) | Structure (SMILES)
-46% | CCN(CC)CCN(Cc1ccc(-c2ccc(C(F)(F)F)cc2)cc1)C(=O)Cn1c(SCc2ccc(F)cc2)nc(=O)c2c1CCC2 [NCGC00386337-05]
-60% | O=C(O)CSc1cc(NS(=O)(=O)c2ccc(Br)cc2)c2ccccc2c1O [NCGC00386409-01]

same assay, conditions: counterscreen, qHTS curve class; negative sign = inhibitory curve

Curve Class (counterscreen) | Structure (SMILES)
-2.2 | CCN(CC)CCN(Cc1ccc(-c2ccc(C(F)(F)F)cc2)cc1)C(=O)Cn1c(SCc2ccc(F)cc2)nc(=O)c2c1CCC2 [NCGC00386337-05]
-1.2 | O=C(O)CSc1cc(NS(=O)(=O)c2ccc(Br)cc2)c2ccccc2c1O [NCGC00386409-01]

same assay, conditions: counterscreen; read-out: IC50 [μM] (counterscreen)

IC50 | Structure (SMILES)
31.6 µM | CCN(CC)CCN(Cc1ccc(-c2ccc(C(F)(F)F)cc2)cc1)C(=O)Cn1c(SCc2ccc(F)cc2)nc(=O)c2c1CCC2 [NCGC00386337-05]
5 µM | O=C(O)CSc1cc(NS(=O)(=O)c2ccc(Br)cc2)c2ccccc2c1O [NCGC00386409-01]

molecular target: T2, CIB1 and αIIb interaction (CIB1-GST : F-αIIb peptide) (Homo sapiens, UniProt Q99828); test: FP assay, 1536-well qHTS format (primary and confirmatory screen); format: binding; details: Table S3, confirmatory screen, YES/NO call
T2 construct: made in house; host or cells: BL-21 plus RIL cells (E. coli)
T2 sequence (Q99828 1-191): T1 sequence (Q99828 1-191)

Structure (SMILES) | Confirm? (confirmatory screen)
O=C(N/N=C1\C(=O)N(CCc2ccccc2)c2ccccc21)c1cccnc1 [NCGC00420788-01] | YES
Cc1ccc2c(c1)/C(=C\C(=O)c1cccs1)C(=O)N2.O=C(O)C(F)(F)F [NCGC00479180-01] | YES

same assay, conditions: Table S3, confirmatory screen, qHTS curve class; a negative sign marks inhibitory curves

Curve Class (confirmatory screen) | Structure (SMILES)
4 | CC[C@@H](c1ccc(F)c(F)c1)n1c(C(=O)OC)c(-c2ccno2)[nH]c1=S [NCGC00387465-01]
-2.2 | O=C(N/N=C1\C(=O)N(CCc2ccccc2)c2ccccc21)c1cccnc1 [NCGC00420788-01]

Structure (SMILES) | Curve Class (confirmatory screen)
Cc1ccc2c(c1)/C(=C\C(=O)c1cccs1)C(=O)N2.O=C(O)C(F)(F)F [NCGC00479180-01] | -1.2

same assay, conditions: Table S3, confirmatory screen; negative = inhibition

Efficacy (%) (confirmatory screen) | Structure (SMILES)
-22% | CC[C@@H](c1ccc(F)c(F)c1)n1c(C(=O)OC)c(-c2ccno2)[nH]c1=S [NCGC00387465-01]
-58% | O=C(N/N=C1\C(=O)N(CCc2ccccc2)c2ccccc21)c1cccnc1 [NCGC00420788-01]

Structure (SMILES) | Efficacy (%) (confirmatory screen)
Cc1ccc2c(c1)/C(=C\C(=O)c1cccs1)C(=O)N2.O=C(O)C(F)(F)F [NCGC00479180-01] | -57%

same assay, conditions: Table S3, confirmatory screen; read-out: IC50 [μM] (confirmatory screen)

Structure (SMILES) | IC50
O=C(N/N=C1\C(=O)N(CCc2ccccc2)c2ccccc21)c1cccnc1 [NCGC00420788-01] | 39.8 µM
Cc1ccc2c(c1)/C(=C\C(=O)c1cccs1)C(=O)N2.O=C(O)C(F)(F)F [NCGC00479180-01] | 11.2 µM

same assay, conditions: confirmatory screen

Efficacy (%) (confirmatory screen) | Structure (SMILES)
-65% | CCN(CC)CCN(Cc1ccc(-c2ccc(C(F)(F)F)cc2)cc1)C(=O)Cn1c(SCc2ccc(F)cc2)nc(=O)c2c1CCC2 [NCGC00386337-05]
-92% | O=C(O)CSc1cc(NS(=O)(=O)c2ccc(Br)cc2)c2ccccc2c1O [NCGC00386409-01]

same assay, conditions: confirmatory screen, YES/NO

Confirm? (confirmatory screen) | Structure (SMILES)
YES | CCN(CC)CCN(Cc1ccc(-c2ccc(C(F)(F)F)cc2)cc1)C(=O)Cn1c(SCc2ccc(F)cc2)nc(=O)c2c1CCC2 [NCGC00386337-05]
YES | O=C(O)CSc1cc(NS(=O)(=O)c2ccc(Br)cc2)c2ccccc2c1O [NCGC00386409-01]

same assay, conditions: confirmatory screen, qHTS curve class; negative sign = inhibitory curve

Curve Class (confirmatory screen) | Structure (SMILES)
-1.2 | CCN(CC)CCN(Cc1ccc(-c2ccc(C(F)(F)F)cc2)cc1)C(=O)Cn1c(SCc2ccc(F)cc2)nc(=O)c2c1CCC2 [NCGC00386337-05]
-1.1 | O=C(O)CSc1cc(NS(=O)(=O)c2ccc(Br)cc2)c2ccccc2c1O [NCGC00386409-01]

same assay, conditions: confirmatory screen; read-out: IC50 [μM] (confirmatory screen)

IC50 | Structure (SMILES)
35.5 µM | CCN(CC)CCN(Cc1ccc(-c2ccc(C(F)(F)F)cc2)cc1)C(=O)Cn1c(SCc2ccc(F)cc2)nc(=O)c2c1CCC2 [NCGC00386337-05]
12.6 µM | O=C(O)CSc1cc(NS(=O)(=O)c2ccc(Br)cc2)c2ccccc2c1O [NCGC00386409-01]

same assay, conditions: qHTS FP screen hits, Table S2; negative = inhibition

Efficacy (%) | Structure (SMILES)
-54% | CCN(CC)CCN(Cc1ccc(-c2ccc(C(F)(F)F)cc2)cc1)C(=O)Cn1c(SCc2ccc(F)cc2)nc(=O)c2c1CCC2 [NCGC00386337-05]
-87% | O=C(O)CSc1cc(NS(=O)(=O)c2ccc(Br)cc2)c2ccccc2c1O [NCGC00386409-01]
-79% | CC[C@@H](c1ccc(F)c(F)c1)n1c(C(=O)OC)c(-c2ccno2)[nH]c1=S [NCGC00387465-01]

same assay, conditions: qHTS FP screen hits, Table S2; one class per curve where COUNT > 1; negative sign = inhibitory curve

Curve Class | Structure (SMILES)
-2.2 | CCN(CC)CCN(Cc1ccc(-c2ccc(C(F)(F)F)cc2)cc1)C(=O)Cn1c(SCc2ccc(F)cc2)nc(=O)c2c1CCC2 [NCGC00386337-05]
-2.2 | O=C(O)CSc1cc(NS(=O)(=O)c2ccc(Br)cc2)c2ccccc2c1O [NCGC00386409-01]
-2.2 | CC[C@@H](c1ccc(F)c(F)c1)n1c(C(=O)OC)c(-c2ccno2)[nH]c1=S [NCGC00387465-01]

same assay, conditions: qHTS FP screen hits, Table S2; read-out: IC50

IC50 | Structure (SMILES)
56.2 µM | CCN(CC)CCN(Cc1ccc(-c2ccc(C(F)(F)F)cc2)cc1)C(=O)Cn1c(SCc2ccc(F)cc2)nc(=O)c2c1CCC2 [NCGC00386337-05]
44.7 µM | O=C(O)CSc1cc(NS(=O)(=O)c2ccc(Br)cc2)c2ccccc2c1O [NCGC00386409-01]
79.4 µM | CC[C@@H](c1ccc(F)c(F)c1)n1c(C(=O)OC)c(-c2ccno2)[nH]c1=S [NCGC00387465-01]

same assay, conditions: qHTS primary screen hits, Table S2; negative = inhibition

Structure (SMILES) | Efficacy (%)
O=C(N/N=C1\C(=O)N(CCc2ccccc2)c2ccccc21)c1cccnc1 [NCGC00420788-01] | -28%
Cc1ccc2c(c1)/C(=C\C(=O)c1cccs1)C(=O)N2.O=C(O)C(F)(F)F [NCGC00479180-01] | -36%

same assay, conditions: qHTS primary screen hits, Table S2; negative sign = inhibitory curve; several classes where COUNT > 1

Structure (SMILES) | Curve Class
O=C(N/N=C1\C(=O)N(CCc2ccccc2)c2ccccc21)c1cccnc1 [NCGC00420788-01] | -1.4
Cc1ccc2c(c1)/C(=C\C(=O)c1cccs1)C(=O)N2.O=C(O)C(F)(F)F [NCGC00479180-01] | -1.4

same assay, conditions: qHTS primary screen hits, Table S2; read-out: IC50

Structure (SMILES) | IC50
O=C(N/N=C1\C(=O)N(CCc2ccccc2)c2ccccc21)c1cccnc1 [NCGC00420788-01] | 22.4 µM
Cc1ccc2c(c1)/C(=C\C(=O)c1cccs1)C(=O)N2.O=C(O)C(F)(F)F [NCGC00479180-01] | 15.8 µM
